# From ChEMBL document CHEMBL3351993, “Design, synthesis and docking study of 5-(substituted benzylidene)thiazolidine-2,4-dione derivatives as inhibitors of protein tyrosine phosphatase 1B” (Bioorg Med Chem Lett, 2014)
# pIC50: −log10 of the molar value.
# Target: T1, Tyrosine-protein phosphatase non-receptor type 1 (Homo sapiens, UniProt P18031)
# T1 sequence (P18031 whole entry): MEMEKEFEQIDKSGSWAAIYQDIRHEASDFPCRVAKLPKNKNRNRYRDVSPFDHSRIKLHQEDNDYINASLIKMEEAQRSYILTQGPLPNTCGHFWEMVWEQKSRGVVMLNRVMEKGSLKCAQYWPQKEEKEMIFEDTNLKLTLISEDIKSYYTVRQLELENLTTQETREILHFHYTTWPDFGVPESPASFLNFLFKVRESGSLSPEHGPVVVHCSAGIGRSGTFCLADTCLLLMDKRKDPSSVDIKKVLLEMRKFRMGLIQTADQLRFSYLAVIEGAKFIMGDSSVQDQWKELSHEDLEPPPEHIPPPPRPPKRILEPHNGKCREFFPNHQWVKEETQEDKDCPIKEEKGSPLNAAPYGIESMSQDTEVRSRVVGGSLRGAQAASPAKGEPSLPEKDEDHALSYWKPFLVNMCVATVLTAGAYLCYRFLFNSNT
# Test: Inhibition of human recombinant PTP1B using pNPP substrate at 37 degC measured after 30 mins
row,SMILES,pIC50
1,C=CCc1cc(/C=C2\SC(=O)N(C)C2=O)c(OC)cc1OC1CCCCO1 (centres undefined),< 4.52
2,COc1cc(O)c(Br)cc1/C=C1\SC(=O)NC1=O,4.95
3,C=CCc1cc(/C=C2\SC(=O)N(C)C2=O)c(OC)cc1O,< 4.52
4,C=CCc1cc(/C=C2\SC(=O)N(Cc3ccccc3)C2=O)c(OC)cc1OC1CCCCO1 (centres undefined),< 4.52
5,CCCCOc1cc(OC)c(/C=C2\SC(=O)N(C)C2=O)cc1Br,4.92
6,C=CCc1cc(/C=C2\SC(=O)N(CC=C)C2=O)c(OC)cc1O,< 4.52
7,C=CCN1C(=O)S/C(=C\c2cc(Br)c(OCC=C(C)C)cc2OC)C1=O,4.77
8,C=CCc1cc(/C=C2\SC(=O)NC2=O)c(OC)cc1O,4.53
9,C=CCc1cc(/C=C2\SC(=O)N(CCCC)C2=O)c(OC)cc1OC1CCCCO1 (centres undefined),4.69
10,CCCCN1C(=O)S/C(=C\c2cc(Br)c(OCC=C(C)C)cc2OC)C1=O,4.91
11,C=CCc1cc(/C=C2\SC(=O)N(CC=C(C)C)C2=O)c(OC)cc1O,4.92
12,C=CCc1cc(/C=C2\SC(=O)N(C(C)C)C2=O)c(OC)cc1OC1CCCCO1 (centres undefined),< 4.52
13,C=CCc1cc(/C=C2\SC(=O)N(CC=C(C)C)C2=O)c(OC)cc1OC1CCCCO1 (centres undefined),4.64
14,COc1cc(OC)c(/C=C2\SC(=O)N(C)C2=O)cc1Br,4.65
15,COc1cc(OC)c(/C=C2\SC(=O)NC2=O)cc1Br,4.85
16,C=CCc1cc(/C=C2\SC(=O)NC2=O)c(OC)cc1OC1CCCCO1 (centres undefined),4.91
17,COc1cc(O)ccc1/C=C1\SC(=O)NC1=O,4.53
18,CCCCOc1cc(OC)c(/C=C2\SC(=O)N(CCCC)C2=O)cc1Br,< 4.52
19,C=CCc1cc(/C=C2\SC(=O)N(CC=C)C2=O)c(OC)cc1OC1CCCCO1 (centres undefined),< 4.52

# The next molecules have a higher pIC50 than those just listed; values first:
row,pIC50,SMILES
1,4.99,COc1cc(OCC=C(C)C)c(Br)cc1/C=C1\SC(=O)N(Cc2ccccc2)C1=O
2,5.00,COc1cc(OCC=C(C)C)c(Br)cc1/C=C1\SC(=O)N(CC=C(C)C)C1=O
3,5.01,CCCCOc1cc(OC)c(/C=C2\SC(=O)N(C(C)C)C2=O)cc1Br
4,5.02,C=CCc1cc(/C=C2\SC(=O)N(CCCC)C2=O)c(OC)cc1O
5,5.09,COc1cc(OCC=C(C)C)c(Br)cc1/C=C1\SC(=O)N(C)C1=O
6,5.09,C=CCOc1cc(OC)c(/C=C2\SC(=O)NC2=O)cc1Br
7,5.09,COc1cc(OCc2ccccc2)c(Br)cc1/C=C1\SC(=O)N(C)C1=O
8,5.10,C=CCN1C(=O)S/C(=C\c2cc(Br)c(OCCCC)cc2OC)C1=O
9,5.12,COc1cc(OCc2ccccc2)c(Br)cc1/C=C1\SC(=O)NC1=O
10,5.14,C=CCc1cc(/C=C2\SC(=O)N(Cc3ccccc3)C2=O)c(OC)cc1O
11,5.18,CCCCOc1cc(OC)c(/C=C2\SC(=O)N(Cc3ccccc3)C2=O)cc1Br
12,5.19,C=CCc1cc(/C=C2\SC(=O)N(C(C)C)C2=O)c(OC)cc1O
13,5.28,COc1cc(OCC=C(C)C)c(Br)cc1/C=C1\SC(=O)NC1=O
14,5.31,CCCCOc1cc(OC)c(/C=C2\SC(=O)NC2=O)cc1Br
15,5.34,COc1cc(OCC=C(C)C)c(Br)cc1/C=C1\SC(=O)N(C(C)C)C1=O
